Data set [1] deals with phosphorylated p38 (P-p38). Description: Formalin-induced phosphorylation of spinal p38 (Western blot). The data set is classed as in vivo, rat. The settings on record: IT p38α AS 30 μg or p38β AS 20 μg for 5 days; assessed 15 minutes after formalin; in comparison to MS treated rats. How it is done:
Injection of formalin into the hind paw leads to phosphorylation of p38 MAP kinase in spinal cord, by 5 minutes after injection. Svensson et al., J Neurochem 86: 1534-1544, 2003b. A full time course was performed (0, 5, 15, 20, 30, 60 min) for formalin-induced phosphorylation of spinal p38 and found peak p38 phosphorylation at 15 min (FIG. 6A). As shown above, down regulation of spinal p380, leads to attenuation of formalin-induced hyperalgesia, it was hypothesized that down-regulation of spinal p38, would reduce the amount of phosphorylated p38 in the spinal cord after formalin injection.
(A) Representative western blots showing levels of P-p38, total p38 and β-actin in the contralateral (left side) and ipsilateral (right side) lumbar spinal cord at different time points after injection of formalin (2.5%, 50 μl) into the dorsal side of the right hind paw. (B) Rats were naïve (no IT treatment, no formalin paw injection) or treated with p38α AS (30 μg), p38β AS (20 μg) or missense (30 μg) for 5 days. On day six, formalin was injected to the hind paw and the level of phosphorylated p38 (P-p38) assessed 15 minutes after injection. […]
Western blot. […] After washing, the antibody-protein complexes were probed with appropriate secondary antibodies labeled with horseradish peroxidase for 1 hr at room temperature and detected with chemiluminescent reagents (SuperSignal, Pierce, Rockford, Ill.). […]
For orientation: Immunoblotting shows a protein as a band on a membrane.

The subject of data set [2] is phosphorylated p38 (P-p38). The data set is described as follows: IT substance P-evoked spinal p38 phosphorylation (Western blot). It is filed as in vivo, rat. The conditions noted are these: IT AS daily for five days, assessed 30 minutes after IT SP injection, compared to the MS group. On the procedure:
Yaksh et al., Nature 286: 155-157, 1980; Yaksh, Trends Pharmacol Sci 20: 329-337, 1999. […] Malmberg and Yaksh, Science 257: 1276-1279, 1992; Svensson et al., J Neurochem 86: 1534-1544, 2003. […] To investigate the contribution of p38α and p38β to SP-evoked hyperalgesia and p38 phosphorylation, spinal delivery of p38α and p38β AS and MS was carried out. Thermal withdrawal latencies was assessed after IT injection of SP and lumbar spinal cords collected immediately to compare the degree of spinal p38 phosphorylation at the hypothesized time of peak phosphorylation. IT injection of SP into the MS group produced an expected reduction of thermal withdrawal latency in comparison with IT saline injection into to vehicle treated animals (FIG. 7C). […] In contrast, IT SP-induced thermal hyperalgesia was attenuated in rats which had received p38β AS (FIG. 7E). […] Stripping and reprobing the western blot membranes confirmed that p38α protein expression was knocked down in p38α AS treated group (FIG. 7D) as well as p38β in the p38β AS group (FIG. 7F).
(A) Graph displaying paw withdrawal latency (PWL) plotted versus time. […] (B) Representative western blots showing levels of P-p38, total p38 and β-actin in lumbar spinal cord at different time points after IT injection of SP (30 nmol). IT-SP induced p38 phosphorylation peaks 30 minutes after SP injection. (C, E) Graph showing PWL assessed 15 and […] after bolus injection of IT saline or IT SP injection in rats treated with IT ACSF, MS (30 μg), p38α AS (30 fig) or p38β AS (20 μg) daily for five days. […] IT injection of MS or ACSF had no effect on IT SP-evoked thermal hyperalgesia. Each time point represents the mean ±SEM (n=4-5 per group). (D, F) Representative western blots showing the level of P-p38, p38α and p38β and β-actin protein expression assessed 30 minutes after IT SP injection.
Western blot. Prior to sacrifice, rats were deeply anesthetized and after decapitation the spinal cords were ejected from the vertebral column by a saline-filled syringe. The lumbar part of the spinal cord was immediately homogenized in extraction buffer (50 mM Tris buffer, pH 8.0, containing 0.5% Triton X-100, 150 mM NaCl, 1 mM EDTA, phosphatase and protease inhibitors) by sonication. […] After washing, the antibody-protein complexes were probed with appropriate secondary antibodies labeled with horseradish peroxidase for 1 hr at room temperature and detected with chemiluminescent reagents (SuperSignal, Pierce, Rockford, Ill.). […] Intensity of immunoreactive bands was quantified using ImageQuant software (Molecular Dynamics, Sunnyvale, Calif.). p38 immuno-positive bands were normalized relative to β-actin.

“Also recorded” adds a separate entry of the source.

Regarding “p38α AS: 20-nucleotide 2′-MOE phosphorothioate chimeric antisense AGGTGCTCAGGACTCCATTT, beginning at position 1081 in the rat p38α mRNA (all phosphorothioate, sugars by position and methylation of C not given here; 2'-MOE chimeric (gapmer) antisense)”, the “phosphorylated p38 in the spinal cord after formalin injection” value in data set [1] is “did not prevent spinal p38 phosphorylation”. In addition, the “phosphorylation of spinal p38 following IT SP” value in data set [2] is recorded as “did not show a reduction; also recorded: No difference in P-p38”.

Take “p38β AS: 20-nucleotide 2′-MOE phosphorothioate chimeric antisense GTATGTCCTCCTCGCGTGGA, beginning at position 439 in the rat p38β mRNA (all phosphorothioate, sugars by position and methylation of C not given here; 2'-MOE chimeric (gapmer) antisense)”: in data set [1], the “phosphorylated p38 in the spinal cord after formalin injection” value is given as “reduction of phosphorylated p38”. In addition, the results for the “phosphorylation of spinal p38 following IT SP” value in data set [2] and in data set [2] (listed as p38 AS) were “pronounced reduction” and “significantly lower”, respectively.
